By IC50 is commonly meant the concentration at which inhibition is half-maximal. The low end stands for inhibition by little substance, the high end for a need for much substance.

SMILES strings stand for the structures. Where a name gives a salt, the structure may show the parent alone.

We go through 16 molecules from US12312347B2, “Azaindole derivative and use thereof as FGFR and C-Met inhibitor” (Wuxi Life Fountain Biotech Co., Ltd, priority 2018, dated 2025).

T1 sequence (P22455 22-802): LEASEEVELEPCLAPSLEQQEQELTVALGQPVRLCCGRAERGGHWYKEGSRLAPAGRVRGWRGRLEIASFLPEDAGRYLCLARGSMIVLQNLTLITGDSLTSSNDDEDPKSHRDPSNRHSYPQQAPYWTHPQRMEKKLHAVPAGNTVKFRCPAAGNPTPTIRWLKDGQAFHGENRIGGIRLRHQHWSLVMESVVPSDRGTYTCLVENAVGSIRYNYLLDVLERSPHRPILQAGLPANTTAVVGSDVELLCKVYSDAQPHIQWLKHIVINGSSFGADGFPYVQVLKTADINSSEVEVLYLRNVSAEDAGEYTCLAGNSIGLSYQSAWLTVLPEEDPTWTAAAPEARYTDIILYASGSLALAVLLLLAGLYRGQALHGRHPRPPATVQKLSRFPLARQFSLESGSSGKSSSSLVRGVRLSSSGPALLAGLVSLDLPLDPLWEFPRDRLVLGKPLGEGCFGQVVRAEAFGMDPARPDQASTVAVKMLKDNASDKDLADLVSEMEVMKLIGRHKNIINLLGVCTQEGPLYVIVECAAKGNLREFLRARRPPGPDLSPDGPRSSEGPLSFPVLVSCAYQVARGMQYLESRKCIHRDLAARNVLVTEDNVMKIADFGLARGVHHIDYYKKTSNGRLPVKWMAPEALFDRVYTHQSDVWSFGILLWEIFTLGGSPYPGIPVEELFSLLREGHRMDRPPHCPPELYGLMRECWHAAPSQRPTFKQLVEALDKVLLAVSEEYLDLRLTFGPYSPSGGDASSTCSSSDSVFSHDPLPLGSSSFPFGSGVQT
T3 sequence (P08581 25-1390): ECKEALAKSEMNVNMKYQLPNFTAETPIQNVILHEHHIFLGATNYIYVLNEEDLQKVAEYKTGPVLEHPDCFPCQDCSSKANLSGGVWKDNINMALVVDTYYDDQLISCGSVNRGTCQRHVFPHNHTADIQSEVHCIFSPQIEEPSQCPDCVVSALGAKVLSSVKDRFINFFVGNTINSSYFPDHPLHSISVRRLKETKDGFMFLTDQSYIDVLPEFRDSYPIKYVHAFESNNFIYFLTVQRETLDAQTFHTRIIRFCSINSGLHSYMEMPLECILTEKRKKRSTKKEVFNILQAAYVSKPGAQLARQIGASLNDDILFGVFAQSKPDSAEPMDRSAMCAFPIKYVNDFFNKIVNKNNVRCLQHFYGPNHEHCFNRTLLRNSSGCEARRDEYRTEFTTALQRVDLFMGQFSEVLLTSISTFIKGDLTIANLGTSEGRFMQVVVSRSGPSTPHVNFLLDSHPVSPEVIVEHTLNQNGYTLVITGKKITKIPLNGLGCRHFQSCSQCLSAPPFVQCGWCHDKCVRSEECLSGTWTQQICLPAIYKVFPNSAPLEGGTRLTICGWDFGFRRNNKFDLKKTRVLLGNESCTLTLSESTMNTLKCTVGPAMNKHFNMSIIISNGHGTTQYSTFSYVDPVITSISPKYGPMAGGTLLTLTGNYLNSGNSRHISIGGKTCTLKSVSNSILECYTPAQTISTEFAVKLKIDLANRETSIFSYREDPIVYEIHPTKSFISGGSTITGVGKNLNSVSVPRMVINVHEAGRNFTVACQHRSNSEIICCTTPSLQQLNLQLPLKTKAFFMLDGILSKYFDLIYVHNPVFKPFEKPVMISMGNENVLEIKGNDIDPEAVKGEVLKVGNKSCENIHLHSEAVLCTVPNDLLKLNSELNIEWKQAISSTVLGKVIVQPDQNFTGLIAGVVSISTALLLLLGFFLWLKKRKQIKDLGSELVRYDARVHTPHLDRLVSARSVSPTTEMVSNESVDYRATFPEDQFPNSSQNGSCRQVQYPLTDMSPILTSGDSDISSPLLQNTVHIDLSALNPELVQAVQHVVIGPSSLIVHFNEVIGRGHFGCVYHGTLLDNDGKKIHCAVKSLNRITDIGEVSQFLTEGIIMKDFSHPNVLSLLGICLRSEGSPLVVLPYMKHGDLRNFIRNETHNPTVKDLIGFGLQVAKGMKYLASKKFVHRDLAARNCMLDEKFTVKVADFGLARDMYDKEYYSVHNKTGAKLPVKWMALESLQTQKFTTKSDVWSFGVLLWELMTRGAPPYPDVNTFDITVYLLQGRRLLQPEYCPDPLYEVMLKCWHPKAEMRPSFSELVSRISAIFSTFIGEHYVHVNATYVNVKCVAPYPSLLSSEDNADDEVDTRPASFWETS
T2 sequence (P11362 22-822): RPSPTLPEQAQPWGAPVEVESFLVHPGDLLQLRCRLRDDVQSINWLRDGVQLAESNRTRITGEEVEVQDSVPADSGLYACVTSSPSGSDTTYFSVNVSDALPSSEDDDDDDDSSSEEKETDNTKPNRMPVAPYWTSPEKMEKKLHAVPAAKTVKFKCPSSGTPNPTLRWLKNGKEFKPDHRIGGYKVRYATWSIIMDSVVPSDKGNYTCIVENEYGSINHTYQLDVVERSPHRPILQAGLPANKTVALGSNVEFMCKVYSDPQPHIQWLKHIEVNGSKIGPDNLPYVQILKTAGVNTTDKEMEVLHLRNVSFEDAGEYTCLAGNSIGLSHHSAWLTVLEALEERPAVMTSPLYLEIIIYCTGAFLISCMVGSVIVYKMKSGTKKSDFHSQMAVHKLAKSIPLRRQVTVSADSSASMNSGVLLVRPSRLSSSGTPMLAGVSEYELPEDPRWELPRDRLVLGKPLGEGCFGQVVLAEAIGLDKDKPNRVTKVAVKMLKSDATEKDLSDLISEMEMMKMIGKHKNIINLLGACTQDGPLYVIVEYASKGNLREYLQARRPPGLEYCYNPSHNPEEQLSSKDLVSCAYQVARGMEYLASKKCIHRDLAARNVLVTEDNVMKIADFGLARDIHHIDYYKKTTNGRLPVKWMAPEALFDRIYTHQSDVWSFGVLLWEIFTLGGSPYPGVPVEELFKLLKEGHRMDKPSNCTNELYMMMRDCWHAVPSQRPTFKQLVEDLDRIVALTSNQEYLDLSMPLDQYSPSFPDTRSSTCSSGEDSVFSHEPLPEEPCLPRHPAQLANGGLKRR

One experiment concerns the target T1, human FGFR4 (Homo sapiens, UniProt P22455).
T1 construct: purchased Invitrogen P3054
In words: 33P isotope-labeled kinase activity test, FGFR4. The format is biochemical. The note with it: ATP 100 μM. On the procedure: (§1) The inhibitory activities of the tested compounds on human FGFR1, FGFR4, and c-Met were evaluated by the IC50 values measured using ^33P isotope-labeled kinase activity test (Reaction Biology Corp).
(§2) Buffer condition: 20 mM Hepes (pH 7.5), 10 mM MgCl2, 1 mM EGTA, 0.02% Brij35, 0.02 mg/mL BSA, 0.1 mM Na3VO4, 2 mM DTT, 1% DMSO.
(§3) Test procedure: The test compounds were dissolved in DMSO at room temperature and formulated to be 10 mM solutions for later use. The substrates were dissolved in freshly prepared buffer, and kinases to be tested were added and mixed well. The test compounds dissolved in DMSO were added to the above mixed reaction solutions by acoustic technique (Echo 550). The concentration of the compound in reaction solution was 1 μM, 0.25 μM, 0.156 μM, 3.91 nM, 0.977 nM, 0.244 nM, 0.061 nM, 0.0153 nM, 0.00381 nM or 10 μM, 2.50 μM, 0.62 μM, 0.156 μM, 39.1 nM, 9.8 nM, 2.4 nM, 0.61 nM, 0.15 nM, 0.038 nM. After incubation for 15 min, ^33P-ATP (activity 0.01 μCi/μL, corresponding concentrations are listed in Table 1) was added to start the reaction. Supplier item number, batch number, as well as the concentration information in the reaction solution of FGFR1, FGFR4, c-Met and substrates thereof are listed in Table 1. […] The kinase activity data are expressed by comparison between the kinase activity in the test compound group and the kinase activity in the blank group (containing DMSO only). IC50 values were obtained by curve fitting with Prism4 software (GraphPad).
In turn, `COc1cc(OC)c(F)c(Cc2c[nH]c3ncc(-c4cnn(C5CCN(CCO)CC5)c4)cc23)c1F` [Embodiment 16] gave an IC50 of 16.1 nM.

On to `COc1cc(OC)c(F)c(Cc2c[nH]c3ncc(-c4cnn(CCN(C)C)c4)cc23)c1F` [Hydrochloride of embodiment 28], for which half-maximal inhibition (IC50) was put at 20.2 nM. This IC50 and that of the molecule before are within 1.5-fold of each other.

`COc1cc(OC)c(F)c(Cc2c[nH]c3ncc(-c4c(C)nn(CCO)c4C)cc23)c1F` [Hydrochloride of embodiment 34]: the IC50 came out at 126 nM.

For `CCN1CCC(n2ncc(-c3cnc4[nH]cc(Cc5c(F)c(OC)cc(OC)c5F)c4c3)c2Cl)CC1` [Hydrochloride of embodiment 40], the IC50 worked out at 21.5 nM.

For `CCN1CCC(n2cc(-c3cnc4[nH]cc(Cc5c(F)c(OC)cc(OC)c5F)c4c3)c(C#N)n2)CC1` [Hydrochloride of embodiment 42], the IC50 was 10.2 nM.

For `COc1cc(OC)c(F)c(Cc2c[nH]c3ncc(-c4cnn(CCO)c4)cc23)c1F` [Hydrochloride of embodiment 46], half-maximal inhibition (IC50) was put at 2.9 nM.

In the case of `COc1cc(OC)c(F)c(Cc2c[nH]c3ncc(-c4ccc(C5(C#N)CCNCC5)cc4)cc23)c1F` [Hydrochloride of embodiment 57], the IC50 amounted to 21.4 nM.

`CCN(CC)CCn1cc(-c2cnc3[nH]cc(Cc4c(F)c(OC)cc(OC)c4F)c3c2)cn1` [Hydrochloride of embodiment 69]: the IC50 worked out at 8.4 nM.

On to `COCCNCCn1cc(-c2cnc3[nH]cc(Cc4c(F)c(OC)cc(OC)c4F)c3c2)cn1` [Hydrochloride of embodiment 70], for which half-maximal inhibition (IC50) required 5 nM.

For the molecule `COc1cc(OC)c(F)c(Cc2c[nH]c3ncc(-c4cnn(CC(O)CNC(C)C)c4)cc23)c1F` (stereo not drawn) [Hydrochloride of embodiment 71], it took 4.9 nM to reach half-maximal inhibition (IC50).

In turn, `COc1cc(OC)c(F)c(Cc2c[nH]c3ncc(-c4cnn(CC(O)CO)c4)cc23)c1F` (stereo not drawn) [Hydrochloride of embodiment 73] returned an IC50 of 2.5 nM. Against the preceding molecule, the IC50 is about 2-fold lower.

The molecule `CCN1CCC(n2cc(-c3cnc4[nH]cc(Cc5c(F)c(OC)cc(OC)c5F)c4n3)cn2)CC1` [Trifluoroacetate salt of embodiment 6] showed an IC50 of 15.2 nM.

For `COc1cc(OC)c(F)c(Cc2c[nH]c3ncc(-c4cnn(CCO)c4)nc23)c1F` [Trifluoroacetate salt of embodiment 8], the IC50 amounted to 20.7 nM.

With `COc1cc(OC)c(F)c(Cc2c[nH]c3ncc(-c4cnn(C5CCN(C)CC5)c4)cc23)c1F` [Trifluoroacetate salt of embodiment 13], the concentration for half-maximal inhibition (IC50) turned out to be 9 nM.

`COc1cc(OC)c(F)c(Cc2c[nH]c3ncc(-c4cnn(C5CCN(C(C)C)CC5)c4)cc23)c1F` [Trifluoroacetate salt of embodiment 14] showed an IC50 of 27.5 nM.

Consider `COc1cc(OC)c(F)c(Cc2c[nH]c3ncc(-c4cnn(C5CCN(C6COC6)CC5)c4)cc23)c1F` [Trifluoroacetate salt of embodiment 15], for which the IC50 turned out to be 25.9 nM.

The next experiment addresses T2, human FGFR1 (Homo sapiens, UniProt P11362).
T2 construct: purchased Invitrogen PV3146
In words: 33P isotope-labeled kinase activity test, FGFR1. The format is biochemical. Conditions: ATP 5 μM. On the procedure:
as §1, §2
as §3, with “The concentration of the compound in reaction solution was 1 μM, 0.25 μM, 0.156 μM, 3.91 nM, 0.977 nM, 0.244 nM, 0.061 nM, 0.0153 nM, 0.00381 nM or 10 μM, 2.50 μM, 0.62 μM, 0.156 μM, 39.1 nM, 9.8 nM, 2.4 nM, 0.61 nM, 0.15 nM, 0.038 nM.” left out
Regarding `COc1cc(OC)c(F)c(Cc2c[nH]c3ncc(-c4cnn(C5CCN(CCO)CC5)c4)cc23)c1F` [Embodiment 16], the IC50 turned out to be 0.73 nM.

As for `COc1cc(OC)c(F)c(Cc2c[nH]c3ncc(-c4cnn(CCN(C)C)c4)cc23)c1F` [Hydrochloride of embodiment 28], the IC50 stood at 0.55 nM.

As for `COc1cc(OC)c(F)c(Cc2c[nH]c3ncc(-c4c(C)nn(CCO)c4C)cc23)c1F` [Hydrochloride of embodiment 34], the IC50 came to 8.9 nM.

For `CCN1CCC(n2ncc(-c3cnc4[nH]cc(Cc5c(F)c(OC)cc(OC)c5F)c4c3)c2Cl)CC1` [Hydrochloride of embodiment 40], the IC50 worked out at 0.4 nM.

`CCN1CCC(n2cc(-c3cnc4[nH]cc(Cc5c(F)c(OC)cc(OC)c5F)c4c3)c(C#N)n2)CC1` [Hydrochloride of embodiment 42]: the IC50 came out at 1.4 nM. This IC50 lies about 3.5-fold higher than the previous one.

`COc1cc(OC)c(F)c(Cc2c[nH]c3ncc(-c4cnn(CCO)c4)cc23)c1F` [Hydrochloride of embodiment 46] displayed an IC50 of 0.42 nM.

`COc1cc(OC)c(F)c(Cc2c[nH]c3ncc(-c4ccc(C5(C#N)CCNCC5)cc4)cc23)c1F` [Hydrochloride of embodiment 57] displayed an IC50 of 1.1 nM.

Take `CCN(CC)CCn1cc(-c2cnc3[nH]cc(Cc4c(F)c(OC)cc(OC)c4F)c3c2)cn1` [Hydrochloride of embodiment 69]: half-maximal inhibition (IC50) was put at 0.6 nM.

On to `COCCNCCn1cc(-c2cnc3[nH]cc(Cc4c(F)c(OC)cc(OC)c4F)c3c2)cn1` [Hydrochloride of embodiment 70], for which it took 0.5 nM to reach half-maximal inhibition (IC50). This IC50 and that of the molecule before are within 1.5-fold of each other.

Turning to `COc1cc(OC)c(F)c(Cc2c[nH]c3ncc(-c4cnn(CC(O)CNC(C)C)c4)cc23)c1F` (stereo not drawn) [Hydrochloride of embodiment 71], the midpoint of inhibition, the IC50, lay at 0.4 nM.

In the case of `COc1cc(OC)c(F)c(Cc2c[nH]c3ncc(-c4cnn(CC(O)CO)c4)cc23)c1F` (stereo not drawn) [Hydrochloride of embodiment 73], the midpoint of inhibition, the IC50, lay at 0.6 nM.

Regarding `CCN1CCC(n2cc(-c3cnc4[nH]cc(Cc5c(F)c(OC)cc(OC)c5F)c4n3)cn2)CC1` [Trifluoroacetate salt of embodiment 6], the IC50 was 0.04 nM.

Consider `COc1cc(OC)c(F)c(Cc2c[nH]c3ncc(-c4cnn(CCO)c4)nc23)c1F` [Trifluoroacetate salt of embodiment 8], for which the IC50 stood at 0.43 nM. Against the preceding molecule, the IC50 is about 11-fold higher.

The molecule `COc1cc(OC)c(F)c(Cc2c[nH]c3ncc(-c4cnn(C5CCN(C)CC5)c4)cc23)c1F` [Trifluoroacetate salt of embodiment 13] yielded an IC50 of 0.04 nM.

For `COc1cc(OC)c(F)c(Cc2c[nH]c3ncc(-c4cnn(C5CCN(C(C)C)CC5)c4)cc23)c1F` [Trifluoroacetate salt of embodiment 14], the IC50 worked out at 1.34 nM.

As for `COc1cc(OC)c(F)c(Cc2c[nH]c3ncc(-c4cnn(C5CCN(C6COC6)CC5)c4)cc23)c1F` [Trifluoroacetate salt of embodiment 15], the IC50 was determined as 1.94 nM.

A further experiment has as its target T3, human c-Met (Homo sapiens, UniProt P08581).
T3 construct: purchased Invitrogen PV3143
In words: 33P isotope-labeled kinase activity test, c-Met. It is filed as biochemical. The note with it: ATP 10 μM. On the procedure:
as §1, §2, §3
In the case of `COc1cc(OC)c(F)c(Cc2c[nH]c3ncc(-c4cnn(C5CCN(CCO)CC5)c4)cc23)c1F` [Embodiment 16], the IC50 was found to be 10.5 nM. This lies in the double-digit nanomolar range.

`COc1cc(OC)c(F)c(Cc2c[nH]c3ncc(-c4cnn(CCN(C)C)c4)cc23)c1F` [Hydrochloride of embodiment 28] came in with an IC50 of 25.9 nM. This IC50 is about 2.5-fold higher than that of the molecule before.

Consider `COc1cc(OC)c(F)c(Cc2c[nH]c3ncc(-c4c(C)nn(CCO)c4C)cc23)c1F` [Hydrochloride of embodiment 34], for which half-maximal inhibition (IC50) was put at 86.7 nM.

For the molecule `CCN1CCC(n2ncc(-c3cnc4[nH]cc(Cc5c(F)c(OC)cc(OC)c5F)c4c3)c2Cl)CC1` [Hydrochloride of embodiment 40], half-maximal inhibition (IC50) was put at 14.6 nM.

`CCN1CCC(n2cc(-c3cnc4[nH]cc(Cc5c(F)c(OC)cc(OC)c5F)c4c3)c(C#N)n2)CC1` [Hydrochloride of embodiment 42] yielded an IC50 of 7.1 nM.

`COc1cc(OC)c(F)c(Cc2c[nH]c3ncc(-c4cnn(CCO)c4)cc23)c1F` [Hydrochloride of embodiment 46] had an IC50 of 8.9 nM.

In turn, `COc1cc(OC)c(F)c(Cc2c[nH]c3ncc(-c4ccc(C5(C#N)CCNCC5)cc4)cc23)c1F` [Hydrochloride of embodiment 57] registered an IC50 of 49.4 nM.

`CCN(CC)CCn1cc(-c2cnc3[nH]cc(Cc4c(F)c(OC)cc(OC)c4F)c3c2)cn1` [Hydrochloride of embodiment 69] returned an IC50 of 35.3 nM.

On to `COCCNCCn1cc(-c2cnc3[nH]cc(Cc4c(F)c(OC)cc(OC)c4F)c3c2)cn1` [Hydrochloride of embodiment 70], for which the IC50 is 31.4 nM.

`COc1cc(OC)c(F)c(Cc2c[nH]c3ncc(-c4cnn(CC(O)CNC(C)C)c4)cc23)c1F` (stereo not drawn) [Hydrochloride of embodiment 71] returned an IC50 of 32.8 nM. This IC50 and that of the molecule before are within 1.5-fold of each other.

In the case of `COc1cc(OC)c(F)c(Cc2c[nH]c3ncc(-c4cnn(CC(O)CO)c4)cc23)c1F` (stereo not drawn) [Hydrochloride of embodiment 73], the IC50 turned out to be 32.4 nM.

Molecule `CCN1CCC(n2cc(-c3cnc4[nH]cc(Cc5c(F)c(OC)cc(OC)c5F)c4n3)cn2)CC1` [Trifluoroacetate salt of embodiment 6] registered an IC50 of 74.3 nM.

`COc1cc(OC)c(F)c(Cc2c[nH]c3ncc(-c4cnn(CCO)c4)nc23)c1F` [Trifluoroacetate salt of embodiment 8] had an IC50 of 496 nM.

In the case of `COc1cc(OC)c(F)c(Cc2c[nH]c3ncc(-c4cnn(C5CCN(C)CC5)c4)cc23)c1F` [Trifluoroacetate salt of embodiment 13], the IC50 worked out at 7.62 nM.

Turning to `COc1cc(OC)c(F)c(Cc2c[nH]c3ncc(-c4cnn(C5CCN(C(C)C)CC5)c4)cc23)c1F` [Trifluoroacetate salt of embodiment 14], half-maximal inhibition (IC50) was put at 14 nM.

As to `COc1cc(OC)c(F)c(Cc2c[nH]c3ncc(-c4cnn(C5CCN(C6COC6)CC5)c4)cc23)c1F` [Trifluoroacetate salt of embodiment 15], the IC50 is 16 nM. The IC50 values of the last two molecules are within 1.5-fold of each other.
